The text below walks through data of ChEMBL document CHEMBL3627656 (Bioorg Med Chem, 2015).

Series [1] is described as follows: Apparent permeability across basolateral to apical side in human Caco2 cells at 10 uM after 2 hrs […] by LC-MS method. It is filed as ADME, cell-based. The note with it: Caco-2.
For series [2], the target named is T1, Prostaglandin G/H synthase 1 (Ovis aries, UniProt P05979).
T1 sequence (P05979 whole entry): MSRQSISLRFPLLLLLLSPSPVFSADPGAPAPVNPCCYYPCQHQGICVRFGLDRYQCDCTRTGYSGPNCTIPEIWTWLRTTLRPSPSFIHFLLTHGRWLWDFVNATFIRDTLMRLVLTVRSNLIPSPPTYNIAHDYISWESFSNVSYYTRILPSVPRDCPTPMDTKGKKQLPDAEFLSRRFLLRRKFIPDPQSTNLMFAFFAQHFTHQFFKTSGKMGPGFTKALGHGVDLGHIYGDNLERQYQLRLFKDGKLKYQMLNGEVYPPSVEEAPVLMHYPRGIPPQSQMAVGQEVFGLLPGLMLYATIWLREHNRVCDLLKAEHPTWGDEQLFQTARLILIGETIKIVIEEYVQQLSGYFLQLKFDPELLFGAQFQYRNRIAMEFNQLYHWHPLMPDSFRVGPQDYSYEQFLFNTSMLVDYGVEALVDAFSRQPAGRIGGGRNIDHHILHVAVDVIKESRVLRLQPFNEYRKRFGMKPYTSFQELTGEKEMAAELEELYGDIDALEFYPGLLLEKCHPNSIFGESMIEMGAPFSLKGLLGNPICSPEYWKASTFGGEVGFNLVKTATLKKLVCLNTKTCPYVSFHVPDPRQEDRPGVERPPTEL
As to the kind of experiment: Inhibition of ovine COX-1 using arachidonic acid after 5 mins by colorimetric method.

Series [3] can be described thus: Apparent permeability across apical to basolateral side in human Caco2 cells at 10 uM after 1 hr by LC-MS method. The class given is ADME, cell-based. The note with it: Caco-2. A general note: Caco-2 monolayers are a common model of the intestinal barrier.
Series [4] is described as follows: Lipophilicity, LogP of the compound at pH 7.4 by reverse-phase HPLC. The class given is physicochemical. Conditions: buffer.
The nature of series [5]: Apparent permeability across basolateral to apical side in human Caco2 cells at 1 uM after 2 hrs by LC-MS method. The class given is ADME, cell-based. The note with it: Caco-2.
Series [6] in a line: Apparent permeability across apical to basolateral side in human Caco2 cells at 1 uM after 1 hr by LC-MS method. The class given is ADME, cell-based. Conditions: Caco-2.

Some results are limits rather than exact numbers.

The Papp B→A is how fast a substance crosses the layer from the basolateral side. For orientation: IC50 means the concentration at which inhibition is half-maximal. For orientation: Papp A→B means how fast a substance crosses the layer from the apical side. A word on the logP: it is the decadic logarithm of the partition coefficient of the neutral form, usually between octanol and water. In the case of `COc1ccc(Oc2cc([N+](=O)[O-])ccc2NS(C)(=O)=O)cc1`, in series [1], the basolateral-to-apical permeability (Papp B→A) at 2 h, 10 µM came to 3.1 ×10⁻⁶ cm/s. The compound further displayed an IC50 in series [2] above 100 µM. Also, in series [3], the Papp A→B at 1 h, 10 µM was found to be 18.2 ×10⁻⁶ cm/s. In addition, in series [4], the log partition coefficient (logP) is 1.41. Also, the basolateral-to-apical permeability (Papp B→A) at 2 h, 1 µM in series [5] stood at 6.8 ×10⁻⁶ cm/s. For the same compound, in series [6], the apical-to-basolateral permeability (Papp A→B) at 1 h, 1 µM is 8.3 ×10⁻⁶ cm/s.

Take `COc1cccc(Oc2cc([N+](=O)[O-])ccc2NS(C)(=O)=O)c1`: in series [1], the basolateral-to-apical permeability (Papp B→A) at 2 h, 10 µM was 51.9 ×10⁻⁶ cm/s. In addition, in series [2], the IC50 was above 100 µM. Besides, the apical-to-basolateral permeability (Papp A→B) at 1 h, 10 µM in series [3] turned out to be 52.3 ×10⁻⁶ cm/s. In addition, the logP in series [4] came to 1.65. Further, the Papp B→A at 2 h, 1 µM in series [5] was found to be 40.4 ×10⁻⁶ cm/s. In addition, the Papp A→B at 1 h, 1 µM in series [6] stood at 42.7 ×10⁻⁶ cm/s.

`CS(=O)(=O)Nc1ccc([N+](=O)[O-])cc1Oc1ccccc1` [NIMESULIDE]: in series [2], the concentration for half-maximal inhibition (IC50) is above 100 µM.

Take `COc1ccccc1Oc1cc([N+](=O)[O-])ccc1NS(C)(=O)=O`: in series [1], the Papp B→A at 2 h, 10 µM was 25.4 ×10⁻⁶ cm/s. In series [2], this compound displayed an IC50 above 100 µM. In addition, the apical-to-basolateral permeability (Papp A→B) at 1 h, 10 µM in series [3] worked out at 38.1 ×10⁻⁶ cm/s. In series [4], this compound had a logP of 1.26. Further, in series [5], the Papp B→A at 2 h, 1 µM came to 8.5 ×10⁻⁶ cm/s. Moreover, the Papp A→B at 1 h, 1 µM in series [6] was determined as 11.2 ×10⁻⁶ cm/s.
